According to PubChem BioAssay (NCI):
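The compound was tested at five concentrations on cells cultured in 96-well plates, with a 48-hour exposure period. GI50: concentration for 50% inhibition of growth. TGI: concentration producing complete growth inhibition.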

Key:
Experiment in all cases: NCI-60 cell line screen, 48 h
786-0 renal = test system: 786-0 renal
A498 renal = test system: A498 renal
A549 NSCLC = test system: A549 NSCLC
ACHN renal = test system: ACHN renal
BT-549 breast = test system: BT-549 breast
CAKI-1 renal = test system: CAKI-1 renal
CCRF-CEM leukemia = test system: CCRF-CEM leukemia
COLO 205 colon = test system: COLO 205 colon
DU-145 prostate = test system: DU-145 prostate
EKVX NSCLC = test system: EKVX NSCLC
HCC-2998 colon = test system: HCC-2998 colon
HCT-116 colon = test system: HCT-116 colon
HCT-15 colon = test system: HCT-15 colon
HL-60(TB) leukemia = test system: HL-60(TB) leukemia
HOP-62 NSCLC = test system: HOP-62 NSCLC
HOP-92 NSCLC = test system: HOP-92 NSCLC
HS 578T breast = test system: HS 578T breast
HT29 colon = test system: HT29 colon
IGROV1 ovarian = test system: IGROV1 ovarian
K-562 leukemia = test system: K-562 leukemia
KM12 colon = test system: KM12 colon
LOX IMVI melanoma = test system: LOX IMVI melanoma
M14 melanoma = test system: M14 melanoma
MALME-3M melanoma = test system: MALME-3M melanoma
MCF7 breast = test system: MCF7 breast
MDA-MB-231 breast = test system: MDA-MB-231 breast
MDA-MB-435 = test system: MDA-MB-435
MOLT-4 leukemia = test system: MOLT-4 leukemia
NCI-H226 lung = test system: NCI-H226 lung
NCI-H23 lung = test system: NCI-H23 lung
NCI-H460 lung = test system: NCI-H460 lung
NCI-H522 lung = test system: NCI-H522 lung
NCI/ADR-RES ovarian = test system: NCI/ADR-RES ovarian
OVCAR-4 ovarian = test system: OVCAR-4 ovarian
OVCAR-5 ovarian = test system: OVCAR-5 ovarian
OVCAR-8 ovarian = test system: OVCAR-8 ovarian
PC-3 prostate = test system: PC-3 prostate
RPMI-8226 leukemia = test system: RPMI-8226 leukemia
RXF 393 renal = test system: RXF 393 renal
SF-268 CNS = test system: SF-268 CNS
SF-295 CNS = test system: SF-295 CNS
SF-539 CNS = test system: SF-539 CNS
SK-MEL-28 melanoma = test system: SK-MEL-28 melanoma
SK-MEL-5 melanoma = test system: SK-MEL-5 melanoma
SK-OV-3 ovarian = test system: SK-OV-3 ovarian
SN12C renal = test system: SN12C renal
SNB-19 CNS = test system: SNB-19 CNS
SNB-75 CNS = test system: SNB-75 CNS
SR leukemia = test system: SR leukemia
SW-620 colon = test system: SW-620 colon
T-47D breast = test system: T-47D breast
TK-10 renal = test system: TK-10 renal
U251 CNS = test system: U251 CNS
UACC-257 melanoma = test system: UACC-257 melanoma
UACC-62 melanoma = test system: UACC-62 melanoma
UO-31 renal = test system: UO-31 renal

## O=C(N/N=C\c1ccc(F)cc1)c1ccc2nc(-c3ccc(Br)cc3)[nH]c2c1
786-0 renal
  GI50: 2.03 µM
  TGI: 3.88 µM
A498 renal
  GI50: 1.94 µM
  TGI: 5.31 µM
A549 NSCLC
  GI50: 1.9 µM
  TGI: 3.7 µM
ACHN renal
  GI50: 1.81 µM
  TGI: 3.69 µM
BT-549 breast
  GI50: 2.34 µM
  TGI: 6.08 µM
CAKI-1 renal
  GI50: 2.2 µM
  TGI: 5.41 µM
CCRF-CEM leukemia
  GI50: 3.5 µM
  TGI: 32.1 µM
COLO 205 colon
  GI50: 1.91 µM
  TGI: 4.43 µM
DU-145 prostate
  GI50: 2.07 µM
  TGI: 4.97 µM
EKVX NSCLC
  GI50: 2.09 µM
  TGI: 4.8 µM
HCC-2998 colon
  GI50: 2.28 µM
  TGI: 5.48 µM
HCT-116 colon
  GI50: 1.87 µM
  TGI: 3.95 µM
HCT-15 colon
  GI50: 2.19 µM
  TGI: 5.08 µM
HL-60(TB) leukemia
  GI50: 14.6 µM
  TGI: > 100 µM
HOP-62 NSCLC
  GI50: 1.86 µM
  TGI: 3.72 µM
HOP-92 NSCLC
  GI50: 2.13 µM
  TGI: 4.54 µM
HS 578T breast
  GI50: 2.04 µM
  TGI: 5.39 µM
HT29 colon
  GI50: 1.85 µM
  TGI: 3.47 µM
IGROV1 ovarian
  GI50: 1.88 µM
  TGI: 3.89 µM
K-562 leukemia
  GI50: 2.73 µM
  TGI: 8.09 µM
KM12 colon
  GI50: 3.2 µM
  TGI: 15.1 µM
LOX IMVI melanoma
  GI50: 1.74 µM
  TGI: 3.54 µM
M14 melanoma
  GI50: 2.08 µM
  TGI: 4.52 µM
MALME-3M melanoma
  GI50: 1.65 µM
  TGI: 3.43 µM
MCF7 breast
  GI50: 1.7 µM
  TGI: 3.88 µM
MDA-MB-231 breast
  GI50: 1.93 µM
  TGI: 4.49 µM
MDA-MB-435
  GI50: 1.96 µM
  TGI: 4.12 µM
MOLT-4 leukemia
  GI50: 2.17 µM
  TGI: 5.62 µM
NCI-H226 lung
  GI50: 2.62 µM
  TGI: 16.6 µM
NCI-H23 lung
  GI50: 1.88 µM
  TGI: 3.67 µM
NCI-H460 lung
  GI50: 1.72 µM
  TGI: 3.27 µM
NCI-H522 lung
  GI50: 1.78 µM
  TGI: 3.96 µM
NCI/ADR-RES ovarian
  GI50: 7.97 µM
  TGI: > 100 µM
OVCAR-4 ovarian
  GI50: 2.51 µM
  TGI: 7.13 µM
OVCAR-5 ovarian
  GI50: 2.28 µM
  TGI: 5.73 µM
OVCAR-8 ovarian
  GI50: 1.98 µM
  TGI: 4.14 µM
PC-3 prostate
  GI50: 1.79 µM
  TGI: 3.4 µM
RPMI-8226 leukemia
  GI50: 2.97 µM
  TGI: 9.39 µM
RXF 393 renal
  GI50: 1.74 µM
  TGI: 3.53 µM
SF-268 CNS
  GI50: 3.26 µM
  TGI: 13 µM
SF-295 CNS
  GI50: 2.18 µM
  TGI: 5.24 µM
SF-539 CNS
  GI50: 1.74 µM
  TGI: 3.42 µM
SK-MEL-28 melanoma
  GI50: 1.86 µM
  TGI: 3.8 µM
SK-MEL-5 melanoma
  GI50: 3.25 µM
  TGI: 13.4 µM
SK-OV-3 ovarian
  GI50: 2.09 µM
  TGI: 5.17 µM
SN12C renal
  GI50: 1.78 µM
  TGI: 3.63 µM
SNB-19 CNS
  GI50: 2.27 µM
  TGI: 4.96 µM
SNB-75 CNS
  GI50: 1.87 µM
  TGI: 4.41 µM
SR leukemia
  GI50: 2.75 µM
  TGI: 8.79 µM
SW-620 colon
  GI50: 1.9 µM
  TGI: 3.76 µM
T-47D breast
  GI50: 1.78 µM
  TGI: 3.92 µM
TK-10 renal
  GI50: 2.59 µM
  TGI: 5.48 µM
U251 CNS
  GI50: 1.91 µM
  TGI: 3.38 µM
UACC-257 melanoma
  GI50: 2.03 µM
  TGI: 4.48 µM
UACC-62 melanoma
  GI50: 2.69 µM
  TGI: 8.76 µM
UO-31 renal
  GI50: 1.6 µM
  TGI: 3.31 µM
